Molecular target: recombinant human PAI-1 (Homo sapiens, UniProt P05121)
Test: Test Example 2: Human PAI-1 Inhibitory Activity (pH 7.4 HEPES buffer, 10 minutes incubation with two-chain tPA)
Assay type: biochemical
Parameters: purchased Molecular Innovations, Inc
Settings: read-out: Inhibition Rate of PAI-1 Activity (%)
Experimental: 0.1 M HEPES, 0.1 M NaCl. 1 mM EDTA. 0.1 % Polyethylene glycol 8,000 (Hampton Research Corporation),
2 mM Dimethyldecylphoshine oxide [Apo-10] (Fluka Corporation)

recombinant human PAI-1, sequence (P05121 24-402): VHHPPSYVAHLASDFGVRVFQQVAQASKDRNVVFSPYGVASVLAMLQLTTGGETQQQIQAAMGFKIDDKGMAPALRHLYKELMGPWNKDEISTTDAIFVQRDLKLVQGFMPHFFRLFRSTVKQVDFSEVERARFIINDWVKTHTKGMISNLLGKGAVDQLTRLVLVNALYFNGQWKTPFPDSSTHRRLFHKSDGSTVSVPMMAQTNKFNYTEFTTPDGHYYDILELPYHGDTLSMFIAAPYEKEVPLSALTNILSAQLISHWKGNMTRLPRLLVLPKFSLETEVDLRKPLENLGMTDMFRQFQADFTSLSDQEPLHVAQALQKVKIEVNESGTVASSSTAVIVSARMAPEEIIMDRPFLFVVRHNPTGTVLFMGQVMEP

inhibition at 0.1 µM [%] | inhibition at 0.3 µM [%] | inhibition at 1 µM [%] | inhibition at 3 µM [%] | inhibition at 10 µM [%] | inhibition at 25 µM [%] | Compound
0 | 12 | 67 | 98 | – | – | CC(C)(C)c1cccc(Oc2ccc(-c3ccc(OC(F)(F)F)cc3)cc2/C=C/C(=O)O)c1 [Compound 437]
9 | 29 | 89 | 98 | – | – | CC(C)c1ccc(-c2ccc(OCC(=O)O)c(Oc3ccc(C(C)(C)C)cc3)c2)cc1 [Compound 441]
– | – | 7 | 25 | 84 | > 99 | CC(C)(C)c1ccc(N(Cc2ccc(-c3ccccc3)cc2)C(=O)C(=O)O)cc1 [Compound 612]
0 | 1 | 12 | 50 | – | – | COc1ccc(-c2ccc(OCC(=O)O)c(Oc3ccc(C(C)(C)C)cc3)c2)cc1 [Compound 445]
19 | 14 | 25 | 80 | – | – | CC(Oc1cc(-c2ccc(OC(F)(F)F)cc2)ccc1/C=C/C(=O)O)c1ccccc1 (centres unmarked) [Compound 500]
15 | 14 | 77 | 98 | – | – | Cc1cc(C)cc(Oc2cc(-c3ccc(C(C)(C)C)cc3)ccc2CCC(=O)O)c1 [Compound 499]
– | – | 49 | 94 | 97 | 86 | CC(C)(C)c1ccc(N(CC(=O)O)c2ccccc2Oc2ccc(OC(F)(F)F)cc2)cc1 [Compound 610]
17 | 54 | > 99 | – | – | – | CCCCCCCOc1cc(-c2ccc(OC(F)(F)F)cc2)cc(OCCCCCCC)c1OCC(=O)O [Compound 425]
2 | 5 | 32 | 98 | – | – | CCCCCOc1ccc(-c2ccc(OC(F)(F)F)cc2)cc1N(CC(=O)O)C(=O)CCCc1ccccc1 [Compound 682]
– | – | 0 | 14 | 57 | > 99 | CC(C)(C)c1ccc(CN(C(=O)C(=O)O)c2ccc(N3CCN(c4ccccc4)CC3)cc2)cc1 [Compound 627]
13 | 21 | 84 | > 99 | – | – | CN(CC(=O)O)c1ccc(-c2ccc(OC(F)(F)F)cc2)cc1Oc1ccc(C(C)(C)C)cc1 [Compound 534]
1 | 1 | 74 | 96 | – | – | CCCCC(Nc1cc(-c2ccc(OC(F)(F)F)cc2)ccc1Oc1ccc(C(C)(C)C)cc1)C(=O)O (centres unmarked) [Compound 423]
19 | 16 | 70 | > 99 | – | – | CCCCc1ccc(Oc2cc(-c3ccc(OC(F)(F)F)cc3)ccc2OCC(=O)O)cc1 [Compound 481]
0 | 3 | 96 | > 99 | – | – | CCCCCOc1ccc(-c2ccc(OCC(=O)O)c(Oc3ccc(C(C)(C)C)cc3)c2)cc1 [Compound 440]
– | – | 0 | 24 | 78 | > 99 | CN(C(=O)c1ccc(N(Cc2ccc(C(C)(C)C)cc2)C(=O)C(=O)O)cc1)c1ccc(OC(F)(F)F)cc1 [Compound 618]
– | – | 26 | 54 | > 99 | > 99 | CN(C(=O)c1ccc(OC(F)(F)F)cc1)c1ccc(OCc2ccc(C(C)(C)C)cc2)c(CCC(=O)O)c1 [Compound 416]
1 | 4 | 83 | > 99 | – | – | CC(C)(C)c1ccc(Oc2cc(-c3ccc(OC(F)(F)F)cc3)ccc2NCC(=O)O)cc1 [Compound 442]
17 | 14 | 70 | > 99 | – | – | O=C(O)CCc1ccc(-c2ccc(OC(F)(F)F)cc2)cc1Oc1ccc(OC(F)(F)F)cc1 [Compound 479]
0 | 13 | 87 | 94 | – | – | CCCCC(Oc1cc(-c2ccc(OC(F)(F)F)cc2)ccc1Oc1ccc(C(C)(C)C)cc1)C(=O)O (centres unmarked) [Compound 303]
– | – | 0 | 20 | 36 | 46 | CC(C)(C)c1ccc(CN(C(=O)CCCC(=O)O)c2ccc(-c3ccc(OC(F)(F)F)cc3)cc2)cc1 [Compound 604]
7 | 9 | 77 | > 99 | – | – | CC(C)(C)[C@H]1CC[C@@H](CN(C(=O)C(=O)O)c2ccc(-c3ccc(OC(F)(F)F)cc3)cc2)CC1 [Compound 680]
3 | 24 | > 99 | > 99 | – | – | CC(C)(C)c1ccc(Oc2cc(-c3ccc(C(C)(C)C)cc3)ccc2CCC(=O)O)cc1 [Compound 497]
37 | 94 | 97 | 95 | – | – | CC(C)(C)c1ccc(Sc2cc(-c3ccc(OC(F)(F)F)cc3)ccc2/C=C/C(=O)O)cc1 [Compound 462]
1 | 15 | 97 | > 99 | – | – | CCCCCCOc1cc(-c2ccc(OC(F)(F)F)cc2)ccc1OC(CCCCCC)C(=O)O (centres unmarked) [Compound 430]
17 | 37 | > 99 | 92 | – | – | O=C(O)C(=O)N(CCCCc1ccccc1)c1cc(-c2ccc(OC(F)(F)F)cc2)ccc1OC1C2CC3CC(C2)CC1C3 (centres unmarked) [Compound 634]
4 | 22 | 96 | > 99 | – | – | CC(C)(C)c1ccc(Oc2cc(-c3ccc4ccccc4c3)ccc2/C=C/C(=O)O)cc1 [Compound 469]
12 | 59 | > 99 | > 99 | – | – | CC(C)(C)c1ccc(Oc2cc(Nc3ccc(OC(F)(F)F)cc3)ccc2CCC(=O)O)cc1 [Compound 532]
1 | 26 | 95 | 98 | – | – | CCCCOc1ccc(Oc2cc(-c3ccc(OC(F)(F)F)cc3)ccc2CCC(=O)O)cc1 [Compound 461]

Compound | inhibition at 0.1 µM [%] | inhibition at 0.3 µM [%] | inhibition at 1 µM [%] | inhibition at 3 µM [%] | inhibition at 10 µM [%] | inhibition at 25 µM [%]
CCCCC(Oc1cc(Oc2ccc(OC(F)(F)F)cc2)ccc1OCc1ccc(C(C)(C)C)cc1)C(=O)O (centres unmarked) [Compound 308] | 0 | 22 | 63 | 95 | – | –
CCCCCOc1ccc(-c2ccc(OC(F)(F)F)cc2)cc1N(CCCCC)C(=O)C(=O)O [Compound 366] | 8 | 24 | 46 | 96 | – | –
CC(C)(C)c1cccc(Oc2cc(-c3ccc(OC(F)(F)F)cc3)ccc2CCC(=O)O)c1 [Compound 336] | 0 | 5 | 45 | > 99 | – | –
O=C(O)C(=O)N(CCCCc1ccccc1)c1cc(-c2ccc(OC(F)(F)F)cc2)ccc1OCCC(F)(F)F [Compound 383] | 2 | 6 | 32 | 98 | – | –
O=C(O)C(=O)N(CCCCc1ccccc1)c1cc(-c2ccc(OC(F)(F)F)cc2)ccc1OC1CCCCC1 [Compound 368] | 0 | 22 | 95 | 85 | – | –
CCCCCOc1cc(-c2cccc(C(F)(F)F)c2)ccc1N(CCCCc1ccccc1)C(=O)C(=O)O [Compound 377] | 1 | 23 | 83 | 94 | – | –
CCCCCCCOc1ccc(-c2ccc(OC(F)(F)F)cc2)cc1N(CCCCc1ccccc1)C(=O)C(=O)O [Compound 352] | 0 | 4 | 72 | 90 | – | –
CCCCCCC(Oc1cc(-c2ccc(OC(F)(F)F)cc2)ccc1Oc1ccc(C(C)(C)C)cc1)C(=O)O (centres unmarked) [Compound 323] | 19 | 16 | 91 | 82 | – | –
CCCCCCCCCOc1ccc(-c2ccc(OC(F)(F)F)cc2)cc1N(CCCCc1ccccc1)C(=O)C(=O)O [Compound 364] | 41 | 94 | 97 | 92 | – | –
CCCCC(Oc1cc(Oc2ccc(OC(F)(F)F)cc2)ccc1OCCCCc1ccccc1)C(=O)O (centres unmarked) [Compound 309] | 1 | 17 | 66 | 91 | – | –
CCCCCN(C(=O)C(=O)O)c1cc(-c2ccc(OC(F)(F)F)cc2)ccc1OCCCCc1ccccc1 [Compound 358] | 0 | 10 | 55 | 98 | – | –
CCCCCOc1ccc(-c2ccc(C(F)(F)F)cc2)cc1N(CCCCc1ccccc1)C(=O)C(=O)O [Compound 390] | 4 | 12 | 79 | 87 | – | –
CCCCCCC(Oc1cc(-c2ccc(OC(F)(F)F)cc2)ccc1Oc1ccccc1)C(=O)O (centres unmarked) [Compound 322] | 0 | 4 | 69 | 92 | – | –
CCCCC(Oc1cc(-c2ccc(OC(F)(F)F)cc2)ccc1OCCCCc1ccc(F)cc1)C(=O)O (centres unmarked) [Compound 324] | 0 | 1 | 66 | 97 | – | –

Reference: EP2272817A1, “PAI-1 INHIBITOR” (Institute of Medicinal Molecular Design, Inc., priority 2008, dated 2009)
